Experimental data published in patent US11311522B1 (Cavion, Inc., priority 2018, dated 2022).

Experiment: PN002/Part II: safety and tolerability
Format: in vivo
From the text: Clinical safety was monitored throughout the study by adverse events, clinical laboratory tests, vital signs, ECGs, and ECG telemetry.
The subject was not on telemetry at the time.

CC(C)c1ccc(CC(=O)N[C@H](C)c2ccc(OCC(F)(F)F)cn2)cc1 [CX-8998]
Abnormal sensation of limbs (12 mg/d): 0 n %
Anger (12 mg/d): 0 n %
Application site erythema (12 mg/d): 1 (16.7) n %
Application site pruritus (12 mg/d): 1 (16.7) n %
At least 1 adverse event (12 mg/d): 6 (100) n %
Backache (12 mg/d): 0 n %
Clamminess (12 mg/d): 0 n %
Daydreaming (12 mg/d): 0 n %
Disorientation (12 mg/d): 0 n %
Dizziness (12 mg/d): 1 (16.7) n %
Drowsiness (12 mg/d): 0 n %
Dyspepsia (12 mg/d): 0 n %
Euphoric mood (12 mg/d): 0 n %
Eye Disorders (12 mg/d): 1 (16.7) n %
Feeling drunk (12 mg/d): 0 n %
Feeling of relaxation (12 mg/d): 2 (33.3) n %
Floating feeling (12 mg/d): 0 n %
Fuzzy head (12 mg/d): 0 n %
Gastrointestinal Disorders (12 mg/d): 1 (16.7) n %
Hallucination (12 mg/d): 0 n %
Headache (12 mg/d): 1 (16.7) n %
Heaviness of head (12 mg/d): 1 (16.7) n %
Hyperactivity (12 mg/d): 1 (16.7) n %
Hypoaesthesia mouth (12 mg/d): 0 n %
Increased state of alertness (12 mg/d): 0 n %
Intermittent headache (12 mg/d): 1 (16.7) n %
Lethargy (12 mg/d): 0 n %
Lightheadedness (12 mg/d): 0 n %
Mood altered (12 mg/d): 1 (16.7) n %
Mood change (12 mg/d): 0 n %
Musculoskeletal and Connective Tissue Disorders (12 mg/d): 1 (16.7) n %
Nausea (12 mg/d): 0 n %
Nervous System Disorders (12 mg/d): 2 (33.3) n %
Paraesthesia generalized (12 mg/d): 0 n %
Paranoia (12 mg/d): 0 n %
Psychiatric Disorders (12 mg/d): 2 (33.3) n %
Respiratory, Thoracic and Mediastinal Disorders (12 mg/d): 0 n %
Sedation (12 mg/d): 0 n %
Sensation of heaviness (12 mg/d): 0 n %
Sensation of pressure (12 mg/d): 0 n %
Skin and Subcutaneous Tissue Disorders (12 mg/d): 1 (16.7) n %
Sleep difficult (12 mg/d): 1 (16.7) n %
Sleep disturbance (12 mg/d): 0 n %
Somnolence (12 mg/d): 0 n %
Sore throat (12 mg/d): 0 n %
Spaced out (12 mg/d): 0 n %
Syncope (12 mg/d): 0 n %
Taste change (12 mg/d): 0 n %
Temporal disorientation (12 mg/d): 0 n %
Tingling (12 mg/d): 0 n %
Tiredness (12 mg/d): 5 (83.3) n %
Visual disturbance (12 mg/d): 0 n %
Vivid dreams (12 mg/d): 0 n %
Vomiting (12 mg/d): 0 n %
Subjects discontinuing treatment because of adverse events (18 mg once daily): 4 of the 6 subjects
Abnormal physical sensation (18 mg/d): 2 (33.3) n %
Abnormal sensation of limbs (18 mg/d): 2 (33.3) n %
Anger (18 mg/d): 2 (33.3) n %
Application site erythema (18 mg/d): 0 n %
Application site pruritus (18 mg/d): 0 n %
At least 1 adverse event (18 mg/d): 6 (100) n %
Backache (18 mg/d): 2 (33.3) n %
Clamminess (18 mg/d): 1 (16.7) n %
Daydreaming (18 mg/d): 2 (33.3) n %
Disorientation (18 mg/d): 1 (16.7) n %
Dizziness (18 mg/d): 2 (33.3) n %
Drowsiness (18 mg/d): 2 (33.3) n %
Dyspepsia (18 mg/d): 0 n %
Euphoric mood (18 mg/d): 1 (16.7) n %
Eye Disorders (18 mg/d): 2 (33.3) n %
Feeling drunk (18 mg/d): 2 (33.3) n %
Feeling of relaxation (18 mg/d): 0 n %
Floating feeling (18 mg/d): 0 n %
Fuzzy head (18 mg/d): 1 (16.7) n %
Gastrointestinal Disorders (18 mg/d): 4 (66.7) n %
Hallucination (18 mg/d): 2 (33.3) n %
Headache (18 mg/d): 4 (66.7) n %
Heaviness of head (18 mg/d): 1 (16.7) n %
Hyperactivity (18 mg/d): 0 n %
Hypoaesthesia mouth (18 mg/d): 2 (33.3) n %
Increased state of alertness (18 mg/d): 0 n %
Intermittent headache (18 mg/d): 0 n %
Lethargy (18 mg/d): 1 (16.7) n %
Lightheadedness (18 mg/d): 1 (16.7) n %
Mood altered (18 mg/d): 0 n %
Mood change (18 mg/d): 0 n %
Musculoskeletal and Connective Tissue Disorders (18 mg/d): 4 (66.7) n %
Nausea (18 mg/d): 2 (33.3) n %
Nervous System Disorders (18 mg/d): 6 (100) n %
Paraesthesia generalized (18 mg/d): 1 (16.7) n %
Paranoia (18 mg/d): 2 (33.3) n %
Psychiatric Disorders (18 mg/d): 6 (100) n %
Respiratory, Thoracic and Mediastinal Disorders (18 mg/d): 1 (16.7) n %
Sedation (18 mg/d): 0 n %
Sensation of heaviness (18 mg/d): 1 (16.7) n %
Sensation of pressure (18 mg/d): 0 n %
Skin and Subcutaneous Tissue Disorders (18 mg/d): 3 (50.0) n %
Sleep difficult (18 mg/d): 1 (16.7) n %
Sleep disturbance (18 mg/d): 1 (16.7) n %
Somnolence (18 mg/d): 0 n %
Sore throat (18 mg/d): 1 (16.7) n %
Spaced out (18 mg/d): 2 (33.3) n %
Syncope (18 mg/d): 1 (16.7) n %
Taste change (18 mg/d): 1 (16.7) n %
Temporal disorientation (18 mg/d): 0 n %
Tingling (18 mg/d): 0 n %
Tiredness (18 mg/d): 2 (33.3) n %
Visual disturbance (18 mg/d): 2 (33.3) n %
Vivid dreams (18 mg/d): 0 n %
Vomiting (18 mg/d): 1 (16.7) n %
Abnormal physical sensation (any dose): 2 (6.7) N (%)
Abnormal sensation of limbs (any dose): 2 (6.7) N (%)
Anger (any dose): 2 (6.7) N (%)
Application site erythema (any dose): 4 (13.3) N (%)
Application site pruritus (any dose): 2 (6.7) N (%)
At least 1 adverse event (any dose): 27 (90.0) N (%)
Backache (any dose): 2 (6.7) N (%)
Clamminess (any dose): 2 (6.7) N (%)
Daydreaming (any dose): 3 (10.0) N (%)
Disorientation (any dose): 2 (6.7) N (%)
Dizziness (any dose): 3 (10.0) N (%)
Drowsiness (any dose): 5 (15.7) N (%)
Dyspepsia (any dose): 2 (6.7) N (%)
Euphoric mood (any dose): 4 (13.3) N (%)
Eye Disorders (any dose): 6 (20.0) N (%)
Feeling drunk (any dose): 2 (6.7) N (%)
Feeling of relaxation (any dose): 7 (23.3) N (%)
Floating feeling (any dose): 3 (10.0) N (%)
Fuzzy head (any dose): 3 (10.0) N (%)
Gastrointestinal Disorders (any dose): 11 (36.7) N (%)
Hallucination (any dose): 2 (6.7) N (%)
Headache (any dose): 14 (46.7) N (%)
Heaviness of head (any dose): 2 (6.7) N (%)
Hyperactivity (any dose): 3 (10.0) N (%)
Hypoaesthesia mouth (any dose): 2 (6.7) N (%)
Increased state of alertness (any dose): 2 (6.7) N (%)
Intermittent headache (any dose): 3 (10.0) N (%)
Lethargy (any dose): 3 (10.0) N (%)
Lightheadedness (any dose): 9 (30.0) N (%)
Mood altered (any dose): 2 (6.7) N (%)
Mood change (any dose): 2 (6.7) N (%)
Musculoskeletal and Connective Tissue Disorders (any dose): 8 (26.7) N (%)
Nausea (any dose): 5 (16.7) N (%)
Nervous System Disorders (any dose): 20 (66.7) N (%)
Paraesthesia generalized (any dose): 2 (6.7) N (%)
Paranoia (any dose): 2 (6.7) N (%)
Psychiatric Disorders (any dose): 15 (50.0) N (%)
Respiratory, Thoracic and Mediastinal Disorders (any dose): 5 (16.7) N (%)
Sedation (any dose): 2 (6.7) N (%)
Sensation of heaviness (any dose): 2 (6.7) N (%)
Sensation of pressure (any dose): 2 (6.7) N (%)
Skin and Subcutaneous Tissue Disorders (any dose): 6 (20.0) N (%)
Sleep difficult (any dose): 2 (6.7) N (%)
Sleep disturbance (any dose): 2 (6.7) N (%)
Somnolence (any dose): 3 (10.0) N (%)
Sore throat (any dose): 3 (10.0) N (%)
Spaced out (any dose): 3 (10.0) N (%)
Syncope (any dose): 2 (6.7) N (%)
Taste change (any dose): 2 (6.7) N (%)
Temporal disorientation (any dose): 2 (6.7) N (%)
Tingling (any dose): 2 (6.7) N (%)
Tiredness (any dose): 13 (43.3) N (%)
Visual disturbance (any dose): 4 (13.3) N (%)
Vivid dreams (any dose): 4 (13.3) N (%)
Vomiting (any dose): 3 (10.0) N (%)
Nasal obstruction (male, human, in vivo, 7 days): 2 (6.7) N (%)
